According to ChEMBL document CHEMBL5500324, “The potential of marine-derived piperazine alkaloids: Sources, structures and bioactivities” (Eur J Med Chem, 2024):
pIC50: −log10 of the molar value. In brackets after ≈: the same amount, converted by molar mass.

Key:
RKO = test: Cytotoxicity against human RKO cells assessed as inhibition of cell growth measured after 48 hrs by MTT assay; type: functional, cell-based
NCI-H460 [1] = test: Cytotoxicity against human NCI-H460 cells assessed as reduction in cell growth incubated for 48 hrs by SRB assay; type: functional, cell-based; conditions: NCI-H460, 48 h
SF-268 [2] = test: Cytotoxicity against human SF-268 cells assessed as reduction in cell growth incubated for 48 hrs by SRB assay; type: functional, cell-based; conditions: SF-268, 48 h
HepG2 [3] = test: Cytotoxicity against human HepG2 cells assessed as reduction in cell growth incubated for 48 hrs by SRB assay; type: functional, cell-based; conditions: HepG2, 48 h
HCT-116 [4] = test: Cytotoxicity against human HCT-116 cells assessed as reduction in cell viability incubated for 24 hrs by MTT assay; type: functional, cell-based; conditions: HCT-116, 24 h
HEK293 = test: Cytotoxicity against HEK293 cells assessed as cell growth inhibition; type: functional, cell-based; conditions: Homo sapiens
MCF7 [5] = test: Cytotoxicity against human MCF7 cells assessed as reduction in cell growth incubated for 48 hrs by SRB assay; type: functional, cell-based; conditions: MCF7, 48 h
A549 [6] = test: Cytotoxicity against human A549 cells assessed as reduction in cell viability incubated for 48 hrs by Celltiter-Glo assay; type: functional, cell-based; conditions: A549, 48 h
[7] = Cytotoxicity against human HaCaT cells incubated for 24 hrs by MTS assay; type: toxicity, cell-based
HCT-116 [8] = test: Cytotoxicity against human HCT-116 cells assessed as reduction in cell viability incubated for 48 hrs by Celltiter-Glo assay; type: functional, cell-based; conditions: HCT-116, 48 h
SF-268 [9] = test: Cytotoxicity against human SF-268 cells assessed as reduction in cell growth incubated for 72 hrs by SRB assay; type: functional, cell-based; conditions: SF-268, 72 h
HepG2 [10] = test: Cytotoxicity against human HepG2 cells assessed as reduction in cell growth incubated for 72 hrs by SRB assay; type: functional, cell-based; conditions: HepG2, 72 h
NCI-H460 [11] = test: Cytotoxicity against human NCI-H460 cells assessed as reduction in cell growth incubated for 72 hrs by SRB assay; type: functional, cell-based; conditions: NCI-H460, 72 h
MCF7 [12] = test: Cytotoxicity against human MCF7 cells assessed as reduction in cell growth incubated for 72 hrs by SRB assay; type: functional, cell-based; conditions: MCF7, 72 h
[13] = Cytotoxicity against human AML1 cells expressing FLT3-ITD mutant assessed as cell viability; type: functional, cell-based
HCT-116 [14] = test: Cytotoxicity against human HCT-116 cells assessed as reduction in cell viability incubated for 48 hrs by MTT assay; type: functional, cell-based; conditions: HCT-116, 48 h
A549 [15] = test: Cytotoxicity against human A549 cells assessed as reduction in cell viability incubated for 48 hrs by MTT assay; type: functional, cell-based; conditions: A549, 48 h
HL-60 [16] = test: Cytotoxicity against human HL-60 cells assessed as cell growth inhibition by MTT assay; type: functional, cell-based
HCT-116 [17] = test: Cytotoxicity against human HCT-116 cells assessed as reduction in cell growth by MTT assay; type: functional, cell-based
K562 = test: Cytotoxicity against human K562 cells assessed as cell growth inhibition by MTT assay; type: functional, cell-based
NCI-H1975 = test: Cytotoxicity against human NCI-H1975 cells assessed as cell growth inhibition by MTT assay; type: functional, cell-based
A549 [18] = test: Cytotoxicity against human A549 cells assessed as reduction in cell growth by MTT assay; type: functional, cell-based
A549 [19] = test: Cytotoxicity against human A549 cells assessed as inhibition of cell growth incubated for 72 hrs by SRB assay; type: functional, cell-based; conditions: A549, 72 h
HepG2 [20] = test: Cytotoxicity against human HepG2 cells assessed as inhibition of cell growth incubated for 72 hrs by SRB assay; type: functional, cell-based; conditions: HepG2, 72 h
SF-268 [21] = test: Cytotoxicity against human SF-268 cells assessed as inhibition of cell growth incubated for 72 hrs by SRB assay; type: functional, cell-based; conditions: SF-268, 72 h
MCF7 [22] = test: Cytotoxicity against human MCF7 cells assessed as inhibition of cell growth incubated for 72 hrs by SRB assay; type: functional, cell-based; conditions: MCF7, 72 h
[23] = Cytotoxicity against human Huh7.5 cells assessed as reduction in cell viability incubated for 72 hrs by CCK-8 assay; type: toxicity, cell-based, Huh-7.5
HeLa [24] = test: Cytotoxicity against human HeLa cells assessed as reduction in cell viability incubated for 24 hrs by CCK-8 assay; type: functional, cell-based
A549 [25] = test: Cytotoxicity against human A549 cells assessed as reduction in cell viability incubated for 24 hrs by CCK-8 assay; type: functional, cell-based; conditions: A549, 24 h
HCT-116 [26] = test: Antiproliferative activity against human HCT-116 cells assessed as reduction in cell growth; type: functional, cell-based
A549 [27] = test: Antiproliferative activity against human A549 cells assessed as reduction in cell viability incubated for 72 hrs by CCK-8 assay; type: functional, cell-based; conditions: A549, 72 h
MCF7 [28] = test: Antiproliferative activity against human MCF7 cells assessed as reduction in cell viability incubated for 72 hrs by MTT assay; type: functional, cell-based; conditions: MCF7, 72 h
AGS = test: Antiproliferative activity against human AGS cells assessed as reduction in cell viability measured for 48 hrs by Cell-Titer Glo assay; type: functional, cell-based
PC-3 [29] = test: Cytotoxicity against human PC-3 cells assessed as reduction in cell growth incubated for 48 hrs by CCK-8 assay; type: functional, cell-based; conditions: PC-3, 48 h
U-937 [30] = test: Cytotoxicity against human U-937 cells assessed as reduction in cell growth incubated for 48 hrs by CCK-8 assay; type: functional, cell-based; conditions: U-937, 48 h
U-937 [31] = test: Cytotoxicity against human U-937 cells assessed as inhibition of cell growth; type: functional, cell-based
HL-60 [32] = test: Cytotoxicity against human HL-60 cells assessed as reduction in cell growth; type: functional, cell-based
T47D = test: Antiproliferative activity against human T47D cells incubated for 48 hrs by MTT assay; type: functional, cell-based
U-937 [33] = test: Cytotoxicity against human U-937 cells assessed as reduction in cell viability incubated for 72 hrs by MTT assay; type: functional, cell-based; conditions: U-937, 72 h
PC-3 [34] = test: Cytotoxicity against human PC-3 cells assessed as reduction in cell viability measured after 72 hrs by MTT assay; type: functional, cell-based; conditions: PC-3, 72 h
HeLa [35] = test: Cytotoxicity against human HeLa cells assessed as cell growth inhibition; type: functional, cell-based
L1210 = test: Cytotoxicity against mouse L1210 assessed as cell growth inhibition; type: functional, cell-based

## C=c1c(=O)n2c(cc3ccccc32)c(=O)n1C
RKO
  pIC50: 4.47
NCI-H460 [1]
  pIC50: 4.91
SF-268 [2]
  pIC50: 5.48
HepG2 [3]
  pIC50: 5.64
HCT-116 [4]
  pIC50: 4.99
HEK293
  pIC50: 4.52
MCF7 [5]
  pIC50: 5.33

## CCCCCCCCCC(CC(=O)NCCCN)N1CC(=O)N(O)C(Cc2ccccc2)C1=O (configuration not stated)
A549 [6]
  pIC50: 4.36
[7]
  IC50 at 24 h: 50 µM
HCT-116 [8]
  pIC50: 4.22

## CC(=O)O[C@H]1C=CC=C2C[C@]34SS[C@](CO)(C(=O)N3[C@@H]21)N(C)C4=O
RKO
  pIC50: 5.91
NCI-H460 [1]
  pIC50: 6.49
SF-268 [9]
  pIC50: 6.60
SF-268 [2]
  pIC50: 6.60
HepG2 [3]
  pIC50: 6.31
HCT-116 [4]
  pIC50: 6.05
HepG2 [10]
  pIC50: 6.49
NCI-H460 [11]
  pIC50: 6.31
MCF7 [12]
  pIC50: 6.66
HEK293
  pIC50: 5.35
MCF7 [5]
  pIC50: 6.66

## CC1(C)C=Cc2c(ccc3c2N[C@@]24N5C(=O)[C@]6(O)CCCN6C(=O)[C@]5(O)C[C@@]32O[C@H](CO)C4(C)C)O1
[13]
  pIC50: 5.00

## CC(C)C[C@H]1NC(=O)[C@@H](Cc2ccc3c(c2)OCO3)NC1=O
HCT-116 [14]
  IC50: 45.4 µg/mL (≈ 149 µM)
A549 [15]
  IC50: 28.4 µg/mL (≈ 93.3 µM)

## CN1C(=O)[C@]23SSS[C@]1(CO)C(=O)N2[C@H]1Nc2ccccc2C1(C12c4ccccc4N[C@H]1N1C(=O)[C@@]4(CO)SSSS[C@]1(C(=O)N4C)[C@H]2O)[C@@H]3O (some centres not stated)
HL-60 [16]
  pIC50: 5.72
HCT-116 [17]
  pIC50: 5.68
K562
  pIC50: 5.72
NCI-H1975
  pIC50: 5.44
A549 [18]
  pIC50: 5.72

## CC(C)=CCc1[nH]cnc1/C=C1\NC(=O)CNC1=O
[13]
  pIC50: 6.66

## CN1C(=O)[C@H]2CSC3=C(C(=O)c4ccccc4C3=O)N2C[C@@H]1CO
A549 [19]
  pIC50: 4.46
HepG2 [20]
  pIC50: 4.51
SF-268 [21]
  pIC50: 4.77
MCF7 [22]
  pIC50: 4.59

## CO[C@H]1CC(=O)[C@@H]2C[C@@]34SS[C@]5(C[C@H]6C(=O)C[C@H](OC)[C@H](O)[C@H]6N5C3=O)C(=O)N4[C@@H]2[C@H]1O
[23]
  IC50 at 72 h: 4.88 µM

## CC[C@H](C)[C@]1(OC)NC(=O)[C@@H](Cc2ccccc2)N2C(=O)C3=C(NC21)OC=CC=C3 (some centres not stated)
HeLa [24]
  pIC50: 3.72
A549 [25]
  pIC50: 4.00

## CC(=O)O[C@H]1C=CC=C2C[C@@]34SS[C@]5(CC6=COC=C[C@H](OC(C)=O)[C@H]6N5C3=O)C(=O)N4[C@@H]21
HCT-116 [26]
  pIC50: 4.86
A549 [27]
  pIC50: 4.92
MCF7 [28]
  pIC50: 5.00
AGS
  pIC50: 4.92

## COc1ccc2c3c(n(CC=C(C)C)c2c1)[C@H](C=C(C)C)N1C(=O)[C@@H]2CCCN2C(=O)[C@@]1(O)[C@H]3OC
PC-3 [29]
  pIC50: 4.01
U-937 [30]
  pIC50: 4.60

## CC(C)=CCC/C(C)=C/COc1ccc(/C=C2/NC(=O)[C@H](C)N(O)C2=O)cc1
U-937 [31]
  IC50: 11.6 µg/mL (≈ 30.2 µM)
HL-60 [32]
  IC50: 11.6 µg/mL (≈ 30.2 µM)
T47D
  IC50: 11.6 µg/mL (≈ 30.2 µM)

## CC(=O)O[C@H]1C=COC=C2C[C@@]34SS[C@]5(CC6=COC=C[C@H](OC(C)=O)[C@H]6N5C3=O)C(=O)N4[C@@H]21
HCT-116 [26]
  pIC50: 4.68
A549 [27]
  pIC50: 4.64
MCF7 [28]
  pIC50: 4.44
AGS
  pIC50: 4.49

## CN1C(=O)[C@]23SSS[C@]1(C)C(=O)N2[C@@H]1Nc2ccccc2C1(C12c4ccccc4N[C@@H]1N1C(=O)[C@@]4(CO)SSS[C@]1(C(=O)N4C)[C@H]2O)[C@@H]3O (some centres not stated)
HL-60 [16]
  pIC50: 5.72
HCT-116 [17]
  pIC50: 6.40
K562
  pIC50: 6.40
NCI-H1975
  pIC50: 6.70
A549 [18]
  pIC50: 6.40

## CN1C(=O)[C@]23SSS[C@]1(CO)C(=O)N2[C@H]1Nc2ccccc2C1(C12c4ccccc4N[C@H]1N1C(=O)[C@@]4(CO)SSS[C@]1(C(=O)N4C)[C@H]2O)[C@@H]3O (some centres not stated)
HL-60 [16]
  pIC50: 5.82
HCT-116 [17]
  pIC50: 6.52
K562
  pIC50: 6.00
NCI-H1975
  pIC50: 6.10
A549 [18]
  pIC50: 6.15

## CCCCCCCCC[C@@H](CC(=O)NCCCCN)N1CC(=O)N(O)[C@H](Cc2ccccc2)C1=O
A549 [6]
  pIC50: 4.42
[7]
  IC50 at 24 h: 37.5 µM
HCT-116 [8]
  pIC50: 4.40

## CS[C@]1(CO)C(=O)N2[C@H]3C(=CC=C[C@@H]3O)C[C@@]2(SC)C(=O)N1C [BIS(DETHIO)BIS(METHYLTHIO)GLIOTOXIN]
U-937 [33]
  pIC50: 6.70
PC-3 [34]
  pIC50: 6.41

## CC1(C)C=Cc2c(ccc3c2NC(=O)[C@@]32C[C@@]34NC(=O)[C@]5(CCCN5C3=O)C[C@H]4C2(C)C)O1 [NOTOAMIDE B]
HeLa [35]
  IC50: 52 µg/mL (≈ 116 µM)
L1210
  IC50: 36 µg/mL (≈ 80.4 µM)
